Tested on: SARS-CoV-2 variants (D614G, UK B.1.1.7, SA B.1.351, Brazil P.1)
Format: cell-based

Structure (SMILES)	reduction of SARS-CoV-2 variant titers
O=C([O-])CCN1C(=O)/C(=C/c2ccc(-c3ccc([N+](=O)[O-])cc3)o2)SC1=S.[K+] [KYA1797K]	85-96%
Cc1cc(/C=C/c2ccc3cc(N(C)C)ccc3[n+]2C)c(C)n1-c1ccccc1 [Pyrvinium]	77-96%

Source: US20230293565A1, “USE OF WNT/BETA-CATENIN PATHWAY INHIBITORS TO BLOCK REPLICATION OF SARS-COV-2 AND OTHER PATHOGENIC VIRUSES” (THE GOVERNORS OF THE UNIVERSITY OF ALBERTA, priority 2020, published 2023)
